The values that follow come from article PMC3995910, “Effect of Proline Analogues on Activity of Human Prolyl Hydroxylase and the Regulation of HIF Signal Transduction Pathway” (PLoS ONE, 2014).

In the assay the target is T1, Prolyl hydroxylase 3 (PHD3) (Homo sapiens, UniProt Q9H6Z9).
T1 construct: gene EGLN3; recombinant human PHD3 expressed in E. coli, ~45 kDa
The assay is described as follows: fluorescence-based 2OG consumption assay (OPD derivatization), double-reciprocal kinetics. The class given is biochemical.

T1 sequence (Q9H6Z9 whole entry): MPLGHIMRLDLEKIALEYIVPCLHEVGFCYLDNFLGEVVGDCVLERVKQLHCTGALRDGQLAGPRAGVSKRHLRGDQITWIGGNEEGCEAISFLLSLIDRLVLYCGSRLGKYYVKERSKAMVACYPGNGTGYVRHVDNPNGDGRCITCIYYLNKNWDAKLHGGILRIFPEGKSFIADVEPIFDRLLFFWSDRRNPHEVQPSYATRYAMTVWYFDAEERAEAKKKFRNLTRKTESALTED

In turn, `O=C(Nc1ccccc1NC(=O)[C@H]1CCCN1)[C@H]1CCCN1` [PA1] showed an inhibition constant (Ki) of 1090 nM.

Molecule `O=C(O)[C@H]1CCCN1C(=O)OCc1ccccc1` [PA2] returned a Ki of 2380 nM.

As a reminder, the Ki is a measure of affinity in units of concentration, obtained from inhibition or displacement. Low readings indicate higher affinity, high ones lower affinity.
